Data from patent publication US11390621B2, “Chiral indole compounds and their use” (ARIAGEN, INC., priority 2019, dated 2022).

System: MC38
Assay: MC38 syngeneic mouse tumor model, ARI-164 / anti-PD-1 / combination (Example 49)
Assay type: in vivo
Procedure: In this example, the in vivo anti-tumor efficacy of a combination of ARI-164 with an anti-PD-1 antibody was evaluated using a panel of seven subcutaneous syngeneic mouse tumor models.
Seven subcutaneous syngeneic mouse tumor models were generated by innoculating female BALB/C or C57BL/6 mice with cancer cells at their right lower or right front flank followed by randomization as detailed in Table 10 below.
A solution of a rat monoclonal anti-mouse PD-1 antibody (isotype IgG2a, κ) at a concentration of 6.61 mg/ml was obtained from BioXcell (InVivoMAb anti-mouse PD-1 (CD279), Clone RMP1-14, Cat #BE0146)) and store at 4° C. The antibody solution was diluted with PBS to obtain a 1 mg/ml dosing solution.
ARI-164 powder was stored at −20° C. The powder of the compound was dissolved in DMSO to obtain dosing solutions at 26.7 mg/ml for administration to mice at 40 mg/kg, respectively.
Seven studies using the seven subcutaneous syngeneic mouse tumor models were performed. In each study, 80 mice were enrolled and randomly allocated to eight different study groups, with 10 mice in each study group. The mean tumor size at randomization was approximately 80-120 mm^3 (around 100 mm^3). Randomization was performed based on “Matched distribution” randomization method (StudyDirector™ software, version 3.1.399.19). […]
The data was collected and analyzed as described above in Example 48.

Compound: CC[C@H](O)c1csc(C(=O)c2c[nH]c3cc(F)ccc23)n1 [ARI-164, (S)-(6-Fluoro-1H-indol-3-yl)(4-(1-hydroxypropyl)thiazol-2-yl)methanone]
- tumor inhibition (in words) (combination with anti-PD-1 antibody, study day 27): significant tumor inhibition
- TGI (%) (intraperitoneal, anti-PD-1 10 mg/kg BIW, ARI-164 160 mg/kg QD): 18.8%
